Source: patent publication US8071768B2, “Alkylquinoline and alkylquinazoline kinase modulators” (Janssen Pharmaceutica, N.V., priority 2005, dated 2011)

Biological target: T1, TrkB (Homo sapiens, UniProt Q16620)
T1 construct: purchased Upstate 14-507M
Test: Trk B Fluorescence Polarization Kinase Assay
Type: biochemical
Conditions: uncertainty ±10%
Method: Trk B Fluorescence Polarization Kinase Assay (TrkB IC50 Data)
The compounds of the present invention are also specific inhibitors of TrkB. Selection of preferred compounds of Formula I for use as TrkB inhibitors was performed in the following manner. The TrkB assay utilized the fluorescein-labeled phosphopeptide and the anti-phosphotyrosine antibody included in the Panvera Phospho-Tyrosine Kinase Kit (Green) supplied by Invitrogen. When TrkB phosphorylated poly Glu4Tyr, the fluorescein-labeled phosphopeptide was displaced from the anti-phosphotyrosine antibody by the phosphorylated poly Glu4Tyr, thus decreasing the FP value. The TrkB kinase reaction was incubated at room temperature for 30 minutes under the following conditions: 50 nM TrkB (Upstate, catalog # 14-507M), 20 ug/mL poly Glu4Tyr, 150 uM ATP, 5 mM MgCl2, 1% compound in DMSO. The kinase reaction was stopped with the addition of EDTA. The fluorescein-labeled phosphopeptide and the anti-phosphotyrosine antibody were added and incubated for 30 minutes at room temperature. Data points were an average of triplicate samples. Inhibition and IC50 data analysis were done with GraphPad Prism using a non-linear regression fit with a multiparamater, sigmoidal dose-response (variable slope) equation.

T1 sequence (Q16620 32-822): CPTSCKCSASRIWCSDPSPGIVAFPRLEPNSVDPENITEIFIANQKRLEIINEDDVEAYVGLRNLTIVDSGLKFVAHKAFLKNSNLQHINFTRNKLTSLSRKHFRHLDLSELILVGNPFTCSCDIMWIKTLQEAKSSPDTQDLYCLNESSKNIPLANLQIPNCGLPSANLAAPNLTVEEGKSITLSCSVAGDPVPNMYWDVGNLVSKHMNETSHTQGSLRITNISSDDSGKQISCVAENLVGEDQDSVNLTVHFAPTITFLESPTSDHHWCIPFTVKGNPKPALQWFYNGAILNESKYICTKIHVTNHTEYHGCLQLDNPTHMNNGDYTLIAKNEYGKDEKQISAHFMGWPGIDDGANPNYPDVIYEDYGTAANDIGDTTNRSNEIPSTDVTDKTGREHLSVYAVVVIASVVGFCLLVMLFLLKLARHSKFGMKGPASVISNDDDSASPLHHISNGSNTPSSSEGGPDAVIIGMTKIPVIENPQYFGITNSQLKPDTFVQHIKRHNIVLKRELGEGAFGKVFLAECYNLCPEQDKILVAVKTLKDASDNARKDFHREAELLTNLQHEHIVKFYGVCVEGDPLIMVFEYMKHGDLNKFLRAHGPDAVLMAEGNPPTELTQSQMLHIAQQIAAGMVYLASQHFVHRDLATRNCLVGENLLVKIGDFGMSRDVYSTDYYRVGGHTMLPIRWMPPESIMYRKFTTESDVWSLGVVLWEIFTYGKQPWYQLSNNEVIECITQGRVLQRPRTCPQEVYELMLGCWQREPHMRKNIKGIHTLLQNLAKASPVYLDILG

IC50 [µM]	Compound
0.1	CC(C)Oc1ccc(NC(=O)N2CCC(c3ncnc4cc(N(C)C)ccc34)CC2)cc1 [Compound 100, 4-(7-Dimethylamino-quinazolin-4-yl)-piperidine-1-carboxylic acid (4-isopropoxy-phenyl)-amide]
0.5	CC(C)Oc1ccc(NC(=O)N2CCC(c3ncnc4cc(OCCCNS(C)(=O)=O)ccc34)CC2)cc1 [Compound 65, 4-[7-(3-Methanesulfonylamino-propoxy)-quinazolin-4-yl]-piperidine-1-carboxylic acid (4-isopropoxy-phenyl)-amide]
> 42	COc1cc2ncnc(C3CCN(C(=O)Nc4ccc(NC(C)=O)cc4)CC3)c2cc1OC [Compound 25, 4-(6,7-Dimethoxy-quinazolin-4-yl)-piperidine-1-carboxylic acid (4-acetylamino-phenyl)-amide]
> 20	CC(=O)N1CCN(CCCOc2ccc3c(C4CCN(C(=O)Nc5ccc(N6CCOCC6)cc5)CC4)ncnc3c2)CC1 [Compound 117, 4-{7-[3-(4-Acetyl-piperazin-1-yl)-propoxy]-quinazolin-4-yl}-piperidine-1-carboxylic acid (4-morpholin-4-yl-phenyl)-amide]
> 42	CCN(CC)CCCOc1ccc2c(C3CCN(C(=O)Nc4ccc(N5CCOCC5)cc4)CC3)ncnc2c1 [Compound 134, 4-[7-(3-Diethylamino-propoxy)-quinazolin-4-yl]-piperidine-1-carboxylic acid (4-morpholin-4-yl-phenyl)-amide]
0.4	COc1ccc2c(C3CCN(C(=O)Nc4ccc(OC(C)C)cc4)CC3)ncnc2c1 [Compound 31, 4-(7-Methoxy-quinazolin-4-yl)-piperidine-1-carboxylic acid (4-isopropoxy-phenyl)-amide]
> 42	CS(=O)(=O)NCCCOc1ccc2c(C3CCN(C(=O)Nc4ccc(N5CCOCC5)cc4)CC3)ncnc2c1 [Compound 66, 4-[7-(3-Methanesulfonylamino-propoxy)-quinazolin-4-yl]-piperidine-1-carboxylic acid (4-morpholin-4-yl-phenyl)-amide]
14.6	CS(=O)(=O)N1CCN(CCCOc2ccc3c(C4CCN(C(=O)Nc5ccc(N6CCOCC6)cc5)CC4)ncnc3c2)CC1 [Compound 118, 4-{7-[3-(4-Methanesulfonyl-piperazin-1-yl)-propoxy]-quinazolin-4-yl}-piperidine-1-carboxylic acid (4-morpholin-4-yl-phenyl)-amide]
0.2	CC(C)Oc1ccc(NC(=O)N2CCC(c3ncnc4ccc(I)cc34)CC2)cc1 [Compound 11, 4-(6-Iodo-quinazolin-4-yl)-piperidine-1-carboxylic acid (4-isopropoxy-phenyl)-amide]
0.5	CC(C)Oc1ccc(NC(=O)N2CCC(c3ncnc4cc(Cl)ccc34)CC2)cc1 [Compound 29, 4-(7-Chloro-quinazolin-4-yl)-piperidine-1-carboxylic acid (4-isopropoxy-phenyl)-amide]
0.3	CC(C)Oc1ccc(NC(=O)N2CCC(c3ncnc4cc(OCCN5CCOC5=O)ccc34)CC2)cc1 [Compound 79, 4-{7-[2-(2-Oxo-oxazolidin-3-yl)-ethoxy]-quinazolin-4-yl}-piperidine-1-carboxylic acid (4-isopropoxy-phenyl)-amide]
> 42	CS(=O)(=O)CCNc1ccc2c(C3CCN(C(=O)Nc4ccc(N5CCOCC5)cc4)CC3)ncnc2c1 [Compound 146, 4-[7-(2-Methanesulfonyl-ethylamino)-quinazolin-4-yl]-piperidine-1-carboxylic acid (4-morpholin-4-yl-phenyl)-amide]
> 20	CCN1CCN(CCCOc2ccc3c(C4CCN(C(=O)Nc5ccc(N6CCOCC6)cc5)CC4)ncnc3c2)CC1 [Compound 115, 4-{7-[3-(4-Ethyl-piperazin-1-yl)-propoxy]-quinazolin-4-yl}-piperidine-1-carboxylic acid (4-morpholin-4-yl-phenyl)-amide]

More lines, now with the values behind:

Compound	IC50 [µM]
COC[C@H]1CCCN1c1ccc2c(C3CCN(C(=O)Nc4ccc(N5CCOCC5)cc4)CC3)ncnc2c1 [Compound 130, (R)-4-[7-(2-Methoxymethyl-pyrrolidin-1-yl)-quinazolin-4-yl]-piperidine-1-carboxylic acid (4-morpholin-4-yl-phenyl)-amide]	> 42
O=C(Nc1ccc(N2CCCC2)nc1)N1CCC(c2ncnc3cc(OCCN4CCOCC4)ccc23)CC1 [Compound 95, 4-[7-(2-Morpholin-4-yl-ethoxy)-quinazolin-4-yl]-piperidine-1-carboxylic acid (6-pyrrolidin-1-yl-pyridin-3-yl)-amide]	3.4
COc1cc2ncnc(C3CCN(C(=O)Nc4ccc(N5CCCCCC5)cc4)CC3)c2cc1OC [Compound 70, 4-(6,7-Dimethoxy-quinazolin-4-yl)-piperidine-1-carboxylic acid (4-azepan-1-yl-phenyl)-amide]	2.7
COc1cc2ncnc(C3CCN(C(=O)Nc4ccc(Cl)cc4)CC3)c2cc1OC [Compound 49, 4-(6,7-Dimethoxy-quinazolin-4-yl)-piperidine-1-carboxylic acid (4-chloro-phenyl)-amide]	22.3
O=C(Nc1ccc(N2CCOCC2)nc1)N1CCC(c2ncnc3cc(OCCN4CCOC4=O)ccc23)CC1 [Compound 91, 4-{7-[2-(2-Oxo-oxazolidin-3-yl)-ethoxy]-quinazolin-4-yl}-piperidine-1-carboxylic acid (6-morpholin-4-yl-pyridin-3-yl)-amide]	1.9
O=C1CCCN1CCOc1ccc2c(C3CCN(C(=O)Nc4cnc(N5CCCC5)nc4)CC3)ncnc2c1 [Compound 84, 4-{7-[2-(2-Oxo-pyrrolidin-1-yl)-ethoxy]-quinazolin-4-yl}-piperidine-1-carboxylic acid (2-pyrrolidin-1-yl-pyrimidin-5-yl)-amide]	0.8
O=C(NCCCOc1ccc2c(C3CCN(C(=O)Nc4ccc(N5CCOCC5)nc4)CC3)ncnc2c1)N1CCOCC1 [Compound 113, Morpholine-4-carboxylic acid (3-{4-[1-(6-morpholin-4-yl-pyridin-3-ylcarbamoyl)-piperidin-4-yl]-quinazolin-7-yloxy}-propyl)-amide]	11.5
COc1cc2ncnc(C3CCN(C(=O)Nc4ccc(C5CCN(C(=O)OC(C)(C)C)CC5)cc4)CC3)c2cc1OC [Compound 63, 4-(4-{[4-(6,7-Dimethoxy-quinazolin-4-yl)-piperidine-1-carbonyl]-amino}-phenyl)-piperidine-1-carboxylic acid tert-butyl ester]	> 42
CN1CCN(c2ccc3c(C4CCN(C(=O)Nc5ccc(N6CCCC6)cc5)CC4)ncnc3c2)CC1 [Compound 159, 4-[7-(4-Methyl-piperazin-1-yl)-quinazolin-4-yl]-piperidine-1-carboxylic acid (4-pyrrolidin-1-yl-phenyl)-amide]	7.86
O=C(Nc1ccc(N2CCOCC2)cc1)N1CCC(c2ncnc3cc(N4CCOCC4)ccc23)CC1 [Compound 145, 4-(7-Morpholin-4-yl-quinazolin-4-yl)-piperidine-1-carboxylic acid (4-morpholin-4-yl-phenyl)-amide]	21.1
O=C(Nc1ccc(N2CCOCC2)cc1)N1CCC(c2ncnc3cc(OCCN4CCOCC4)ccc23)CC1 [Compound 96, 4-[7-(2-Morpholin-4-yl-ethoxy)-quinazolin-4-yl]-piperidine-1-carboxylic acid (4-morpholin-4-yl-phenyl)-amide]	27.9
COc1cc2ncnc(C3CCN(C(=O)Nc4ccc(-n5ccnc5)cc4)CC3)c2cc1OC [Compound 3, 4-(6,7-Dimethoxy-quinazolin-4-yl)-piperidine-1-carboxylic acid (4-imidazol-1-yl-phenyl)-amide]	> 42
CN1CCN(c2ccc3c(C4CCN(C(=O)Nc5ccc(N6CCCC6)nc5)CC4)ncnc3c2)CC1 [Compound 160, 4-[7-(4-Methyl-piperazin-1-yl)-quinazolin-4-yl]-piperidine-1-carboxylic acid (6-pyrrolidin-1-yl-pyridin-3-yl)-amide]	6.45
COc1cc2ncnc(C3CCN(C(=O)Nc4ccc(N5CCCCC5)cc4)CC3)c2cc1OC [Compound 19, 4-(6,7-Dimethoxy-quinazolin-4-yl)-piperidine-1-carboxylic acid (4-piperidin-1-yl-phenyl)-amide]	2.7
CN1CCC(COc2ccc3c(C4CCN(C(=O)Nc5ccc(OC6CCC6)nc5)CC4)ncnc3c2)CC1 [Compound 107, 4-[7-(1-Methyl-piperidin-4-ylmethoxy)-quinazolin-4-yl]-piperidine-1-carboxylic acid (6-cyclobutoxy-pyridin-3-yl)-amide]	0.2
O=C(Nc1ccc(N2CCCC2)cc1)N1CCC(c2ncnc3cc(N4CC[C@H](O)C4)ccc23)CC1 [Compound 129, (S)-4-[7-(3-Hydroxy-pyrrolidin-1-yl)-quinazolin-4-yl]-piperidine-1-carboxylic acid (4-pyrrolidin-1-yl-phenyl)-amide]	3.11
COc1cc2ncnc(C3CCN(C(=O)Nc4ccc(OC(C)C)nc4)CC3)c2cc1OC [Compound 56, 4-(6,7-Dimethoxy-quinazolin-4-yl)-piperidine-1-carboxylic acid (6-isopropoxy-pyridin-3-yl)-amide]	0.4
COc1cc2ncnc(C3CCN(C(=O)Nc4ccc(C)cc4)CC3)c2cc1OC [Compound 48, 4-(6,7-Dimethoxy-quinazolin-4-yl)-piperidine-1-carboxylic acid p-tolylamide]	6.6
COc1cc2ncnc(C3CCN(C(=O)NC4CCC(C(C)(C)C)CC4)CC3)c2cc1OC (centres unmarked) [Compound 54, 4-(6,7-Dimethoxy-quinazolin-4-yl)-piperidine-1-carboxylic acid (4-tert-butyl-cyclohexyl)-amide]	6.2
